How the values were obtained:
[1] = Extraction of base from butyraldehyde into equimolar aqueous H3PO3 (Example 5, Table A); type: physicochemical
Method: The following series of experiments were performed in order to determine the relationship of the pKa of a base to the effectiveness of the base to remain in the organic phase upon contact with an equimolar aqueous acid solution. In all cases the experiments were performed under nitrogen, unless otherwise specified.
Solutions were prepared by dissolving a quantity of acid or base in solvent so that the final concentration was equal to 0.1 moles/liter. The 1×10^-3 moles/liter solutions were prepared by taking an aliquot of the 0.1 moles/liter solution and diluting to the specified concentration. The 1×10^-5 moles/liter solutions were prepared in the same manner as the 1×10^-3 moles/liter solution with the modification of using an aliquot of the 1×10^-3 moles/liter solution in place of the 0.1 moles/liter solution.
In each extraction experiment, 5 milliliters of base solution in butyraldehyde was added to a clean, dry vial. To this vial was added 5 milliliters of equimolar H3 PO3 solution. The resulting mixture was rapidly shaken for several minutes and then allowed to phase separate. A 1 milliliter aliquot of the aqueous layer was then transferred to a clean, dry vial. To this vial was added 1 milliliter of pH 7 sodium/potassium phosphate buffer and 0.1 milliliter of Tergitol® 15-S-9 surfactant. The solution was shaken vigorously, and an aliquot was analyzed by high performance liquid chromatography for base content. The amount of base was then compared with a dichloromethane solution at the initial concentration. The partition coefficients calculated are for partitioning of the base from the organic phase to the water phase and is defined as K=amount of base in the water phase/amount of base in the organic phase.

[2] = Stability of Ligand F in rhodium-containing butyraldehyde solution by HPLC (Examples 2-4)
[3] = Partition of hydroxy butyl phosphonic acid between butyraldehyde and water (Example 1); type: physicochemical
Method: Into a glass vessel was added a stock solution of 536 parts per million of hydroxy butyl phosphonic acid in butyraldehyde. This solution was contacted with water in a weight ratio of 1.18:1 grams water to grams aldehyde/acid stock solution. The aldehyde and water phase were contacted thoroughly to allow the separation of acid between the organic and the aqueous layer to reach equilibrium. The aldehyde phase was analyzed for hydroxy butyl phosphonic acid by ion chromatography after contact with the water giving 52.3 parts per million of hydroxy butyl phosphonic acid. The water phase was also analyzed by ion chromatography for the acid. The water phase contained 414 parts per million of hydroxy butyl phosphonic acid. The partition coefficient between the water and the butyraldehyde phase was 414/52.3 or 7.92.

[4] = base 1 × 10^-3 moles/liter in butyraldehyde, H3PO3 1 × 10^-3 moles/liter
[5] = base 1 × 10^-5 moles/liter in butyraldehyde, H3PO3 1 × 10^-5 moles/liter
[6] = 536 ppm stock in butyraldehyde, 1.18:1 grams water to grams aldehyde/acid stock, ion chromatography

| Compound | K (amount of base in the water phase/amount of base in the organic phase) [1, 4] | K (amount of base in the water phase/amount of base in the organic phase) [1, 5] | other results |
| --- | --- | --- | --- |
| O=C1CCCN1Cc1ccccc1 [1-benzyl-2-pyrrolidinone] | 0.02 | 0.00 | – |
| CC(C)(C)c1cc(-c2cc(C(C)(C)C)cc(C(C)(C)C)c2Op2oc3ccccc3c3ccccc3o2)c(Op2oc3ccccc3c3ccccc3o2)c(C(C)(C)C)c1 [Ligand F] | – | – | concentration of Ligand F after 24 hours ([2]; 0.017 grams H3PO3 added to 12 gram solution, decreased from 0.39, 24 hours): 0.12 percent by weight; concentration of Ligand F after 72 hours ([2]; 0.017 grams H3PO3 added to 12 gram solution, initially 0.39, 72 hours): 0.04 percent by weight; change in concentration of Ligand F ([2]; after either 24 or 72 hours, 200 ppm rhodium, 0.39 wt% Ligand F in butyraldehyde, no added acid or benzimidazole): No change in the concentration |
| c1ccc2[nH]nnc2c1 [benzotriazole] | 0.08 | 0.00 | – |
| c1ccc2ncccc2c1 [quinoline] | 0.43 | 1.20 | – |
| hydroxy butyl phosphonic acid | – | – | hydroxy butyl phosphonic acid in aldehyde phase after contact with water [3, 6]: 52.3 parts per million; hydroxy butyl phosphonic acid in water phase [3, 6]: 414 parts per million; partition coefficient between the water and the butyraldehyde phase ([3]; water/butyraldehyde, 414/52.3): 7.92 |

Source: patent US5786517A, “Metal-ligand complex catalyzed processes” (Union Carbide Chemicals & Plastics Technology Corporation, priority 1996, dated 1998)
